According to patent US8519124B2, “Chemokine receptor antagonists and use thereof” (Ono Pharmaceutical Co., Ltd., priority 2005, dated 2013):

Key:
[1] = system: DOPA liposome (artificial lipid membrane); assay: Artificial lipid membrane binding by using Biacore S51 system; details: 50 μM compound
Protocol: Artificial Lipid Membrane Binding Account by Using Biacore (Registered Trademark) S51 System
10 mM of 1,2-Dioleoyl-sn-Glycero-3-Phosphate, Monosodium Salt (hereinafter abbreviated as DOPA) chloroform solution was evaporated to dryness by means of an aspirator, and 0.6 mL of PBS/5% dimethyl sulfoxide (hereinafter abbreviated as DMSO) was added. The chloroform solution was fully suspended by means of a vortex mixer, and the freezing and thawing were repeated for 5 times. Liposome was created by means of a liposome adjustment instrument (manufactured by Avestin Inc.) and 2 syringes, and was diluted to 0.5 mM with PBS/5% DMSO just prior to immobilization.
(ii) Measurement Compound Adjustment
The 38 μL of 1×PBS is added to 2 μL DMSO solution (10 mM), and further the 360 μL 1×PBS/5% DMSO was added; the 50 μM of final concentration in the 1×PBS/5% DMSO was adjusted and measured.
All of the following analysis used Biacore® S51 system; the measurement conditions were set by Biacore S51 Control Soft.
The measurement temperature was set to be 37° C., and the 1×PBS/5% DMSO (pH 7.4 or PH 6.0) was used as a buffer. Series S Sensor Chip L1 was used for a sensor chip. The DOPA was immobilized in one of the measuring spots on the sensor surface, and the central spot was used as a reference.
Immobilization of liposome was conducted at a flow rate of 10 μL/min for about 3 minutes; then the compound was added at a flow rate of 30 μL/min and the interaction was measured. The measurement conditions are as follows:
Assay buffer: PBS/5% DMSO (pH 7.4 or PH 6.0)
Measurement temperature: 37° C.
Sensor chip: Series S Sensor Chip L1
Flow rate: 10 μL/min at the time of the liposome immobilization; 30 μL/min at the time of the measurement of interaction with the compound
Regeneration: 20 mM CHAPS (3-[(3-Cholamidopropyl)dimethylammonio]-1-propanesulfonate), Isopropanol/50 mM sodium hydroxide solution=40/60 (volume ratio) mixture (60 seconds)
The data processing was conducted by means of method of Abdiche et al. (Analytical biochemistry, 328, 233-243 (2004)) by using Biacore S51 Evaluation Soft.
Regarding the value of binding response (RU) in which the value of reference was subtracted, it was divided by a sample molecular weight after minute error of the DMSO concentration included in the sample solution was corrected. In addition, the value obtained here was divided by an amount of capture at the time of the cycle because the value obtained here was proportional to the amount of capture of the liposome; further, the value was multiplied by a million to be considered as a corrected value (Corrected value=1000000)×RU (test compound)/molecular quantity (test compound) RU (liposome)).
Propranolol, Amiodarone, Desipramine, Imipramine and Procaine were added as the controls, and it was recognized that the variation of the binding response was within ca. 10 to 15%.
The compound, in which a value of the binding response after the correction was equal to or more than 150, was determined as positive.

[2] = Measurement of maximum plasma level (Cmax) and bioavailability (BA); assay type: in vivo; details: male, Crl:CD(SD), po; rat plasma; orally administered solution 10 mg/kg, fasting
Protocol: Measurement of Maximum Plasma Level (CMax) and Bioavailability (BA)
A test compound is weighed, dissolved in Solutol (trade name; manufactured by BASF-TAKEDA Vitamins Ltd.)/propylene glycol=7/3 which is heated to 60° C. and adjusted to 20 mg/mL; thereafter, the test compound is diluted by 10 times with distilled water for injection, and further diluted by 2 times with saline solution, by which intravenously administered solution is eventually made. The test compound is weighed, dissolved in Solutol (trade name; manufactured by BASF-TAKEDA Vitamins Ltd.)/propylene glycol=7/3 which is heated to 60° C., and adjusted to 20 mg/mL; thereafter, the test compound is diluted by 10 times with distilled water for injection, by which orally administered solution is eventually made. Intravenous administration is performed by rapid single administration (n=3) of intravenously administered solution (1 mg/kg) from the tail vein of Crl:CD(SD) Rat (male, manufactured by CHARLES RIVER LABORATORIES JAPAN, INC). Oral administration is performed by forced administration (n=3) of orally administered solution (10 mg/kg) into the stomach of Crl:CD(SD) Rat (male, manufactured by CHARLES RIVER LABORATORIES JAPAN, INC.) using a sonde. The administration is conducted under fasting conditions; water is freely ingested. A 0.35 mL blood sample is taken from cervical vein by using Heparinized Syringe at 15 minutes, 30 minutes, 1 hour, 2 hours, 4 hours, 6 hours, 8 hours, and 24 hours after administration. The obtained blood is stored in ice, and after centrifugation at 12,000 rpm for 5 minutes, blood plasma is fractionated. The blood plasma is preserved at a temperature of −80° C. The sample of blood plasma preserved at a temperature of −80° C. is dissolved; inner standard solution (100 μL) and acetonitrile (2 mL) are added to the blood plasma sample 100 μL and stirred; and the sample is centrifuged at 2,500 rpm for 10 minutes. After the supernatant is evaporated to dryness by means of a centrifugal concentrator, 67% dimethyl sulfoxide solution (150 μL) is added to the residue and dissolves them again; and 20 μL of the solution is analyzed by means of LC/MS/MS.
The analysis by means of LC/MS/MS should be performed, for example, under the following conditions:
Measurement device: Waters 2795 (manufactured by Waters Corporation)
Analytical column: Unison UK-C18, 3.0 μm particle size, 2.0 mm×30 mm (manufactured by Imtakt Corporation)
Analytical column temperature: Room temperature
Moving bed: 5 mM IPC-PFAA-7 solution/acetonitrile (9/1→1/9)
Measurement device: Quatro micro API (manufactured by Micromass Communications Inc.)
Method for ionization: ES+
Capillary electric potential: 3.30 kV
Source temperature: 120° C.
Desolvation temperature: 350° C.
The monitor ion which was suitable for each sample was selected.
The concentration transition in the rat blood plasma of the test compound is analyzed by means of non-compartment analysis method by using WinNonlin 4.0.1 (manufactured by Pharsight Corporation) to calculate the maximum blood concentration Cmax and the area under the blood concentration curve AUC.
BA is calculated by means of the following formula: BA(%)={(AUCp.o./Dosep.o.)/(AUCi.v./Dosei.v.)}×100
AUCp.o.: AUC in oral administration
Dosep.o.: Amount of the drug orally administered
AUCi.v.: AUC in intravenous administration
Dosei.v.: Amount of the drug intravenously administered

Corrected value of binding response (RU) ([1]; DOPA liposome on Sensor Chip L1, 37° C., PBS/5% DMSO (pH 7.4 or PH 6.0)): 80.7 RU
Cmax [2]: 46 ng/mL
SMILES: CC(C)(C)CN1CCC2(CCN(Cc3ccc(C(=O)N(Cc4ncc[nH]4)Cc4ncc[nH]4)cc3)CC2)C1 [Example 8 (114), 4-{[2-(2,2-dimethylpropyl)-2,8-diazaspiro[4.5]dec-8-yl]methyl}-N,N-bis(1H-imidazol-2-ylmethyl)benzamide]
Judgement (phospholipidosis inductive effect) ([1]; DOPA liposome): negative
